The text below walks through data of the METLIN SMRT retention time set (Domingo-Almenara et al. 2019).

The series can be described thus: gradient 5% acetonitrile 3 min, to 50% in 2 min, to 85% in 15 min, held 3 min, 100 µL/min. The settings on record: column: Zorbax Extend-C18 2.1 x 50 mm; eluents: water / acetonitrile, 0.1% formic acid. The method, boiled down: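 Over 3 months, pure standards in mixtures of ~100 molecules were run by HPLC coupled to a quadrupole time-of-flight mass spectrometer in positive and negative ionization mode. The column was a Zorbax Extend-C18 (2.1 × 50 mm, 1.8 μm) at 100 μL/min, eluted with water and acetonitrile each holding 0.1% formic acid, with 40 μL dead and 900 μL dwell volumes. Retention time was determined from adduct peaks chosen by software and checked manually.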
For `CCSc1ccccc1C(=O)Nc1nnc(Cc2cccs2)o1`, the RP-LC retention time was 764 s.

Compound `CCn1c(CCC(=O)NCc2ccc(C)cc2)nc2ccccc2c1=O` yielded an RP-LC retention time of 796 s.

Turning to `C=CCN1C(=O)C(C)(C)COc2cc(NC(=O)c3cccc(OC)c3OC)ccc21`, the RP-LC retention time was determined as 943 s.

Regarding `COc1ccc(-n2ccc(=O)c(-c3nc(-c4cccc(Br)c4)no3)n2)cc1`, the RP-LC retention time is 985 s.

For the compound `CC(C)Cc1cc(-c2nnc3sc(-c4ccc(N(C)C)cc4)nn23)n[nH]1`, the RP-LC retention time came out at 1060 s.

On to `O=C(Nc1ccc(-c2nnc3n2CCCC3)cc1)C1CCCCC1`, for which the RP-LC retention time turned out to be 699 s.

As for `O=C(COc1ccccc1Cl)NCCCn1nc(-c2ccc(F)cc2)ccc1=O`, the RP-LC retention time is 807 s.

`O=S(=O)(c1ccccc1)N1CCC(Cc2nncn2-c2ccccc2)C1` (centres undefined) came in with an RP-LC retention time of 709 s.

In turn, `CCn1cnc2cc(-c3noc(CNC(=O)Cc4ccc(Cl)cc4)n3)ccc21` returned an RP-LC retention time of 658 s.

Take `CCc1ccc(NC(=O)C2CCCN(S(=O)(=O)c3c[nH]c(C(=O)N4CCCCCC4)c3)C2)cc1` (centres undefined): the RP-LC retention time came to 923 s.

`CCOc1ccccc1-c1noc(-c2nnn(Cc3nc(-c4ccccc4OC)oc3C)c2C)n1`: the RP-LC retention time amounted to 1070 s.

In turn, `Cc1ccc(NS(=O)(=O)c2cc(-c3[nH]ncc3C(=O)N(C)C)oc2C)cc1` had an RP-LC retention time of 690 s.

As to `Cc1cc(C)cc(Oc2nccn3c(=O)n(CC(=O)Nc4cc(C)ccc4C)nc23)c1`, the RP-LC retention time is 974 s.

`CCOC(=O)C1CCC(CNC(=O)N2CCN(Cc3nc4cc(C)ccc4o3)CC2)CC1` (centres undefined): the RP-LC retention time worked out at 735 s.

In turn, `COCCNC(=O)NC1CCN(C2=NS(=O)(=O)C(c3cccc(Cl)c3)=C2C)CC1` registered an RP-LC retention time of 718 s.

`Cc1ccc(-c2nc3ccccn3c2Nc2ccc3c(c2)OCO3)cc1` displayed an RP-LC retention time of 694 s.

The compound `O=C(C1CCCC1)N1CC(N(Cc2ccccn2)C(=O)Nc2ccccc2)C1` came in with an RP-LC retention time of 579 s.

For the compound `COc1cccc(S(=O)(=O)N2CCC3(CC2)CC(OCC2CC2)CCO3)c1` (centres undefined), the RP-LC retention time was 1010 s.

On to `Cc1ccccc1C(=O)N1CCc2c(c(-c3nc(C4CC4)no3)nn2C)C1`, for which the RP-LC retention time turned out to be 801 s.

Turning to `COCCNC(=O)c1ccc(-n2nc(Sc3ccc(Cl)cc3)ccc2=O)cc1`, the RP-LC retention time came out at 828 s.

`C(=C\c1cccs1)/c1nc(-c2cccc(-c3ccn[nH]3)c2)no1` displayed an RP-LC retention time of 1010 s.

`C(=C\c1ccccn1)/c1ccccn1` returned an RP-LC retention time of 590 s.

As for `CCC(c1cccs1)N1C(=O)[C@H]2CN(S(=O)(=O)c3cccc(Cl)c3)C[C@H]2C1=O` (some centres undefined), the RP-LC retention time amounted to 1060 s.

`O=C(Nc1ccc(Cl)cc1Cl)c1ccc(Br)cc1F` came in with an RP-LC retention time of 1360 s.

The compound `CC1(C(=O)NCc2ccc(F)cc2)Cn2cnc(C(=O)NC3CCCCC3)c2C(=O)N1C1CC1` (centres undefined) gave an RP-LC retention time of 765 s.

For the compound `Cn1cnc(S(=O)(=O)N2CCC(C(=O)Nc3ccc(F)c(F)c3)CC2)c1`, the RP-LC retention time was determined as 709 s.

For `CCCc1ccc(S(=O)(=O)N2CCC3(CC2)NCCN=C3NCc2ccc(C)cc2)cc1`, the RP-LC retention time came to 846 s.

`O=C(CCc1csc2nc(C3CC3)cn12)Nc1nc2ccccc2s1` returned an RP-LC retention time of 594 s.

Compound `CCCN(CC1CCOC1)C(=O)NCc1ccc(F)cc1` (centres undefined) returned an RP-LC retention time of 758 s.

Take `Cc1ccccc1NC(=O)N1CCC2(CC1)NC(=O)c1ccc(F)cc1N2C`: the RP-LC retention time is 747 s.

On to `COc1ccc(OCC(=O)N2CCc3c(c(-c4nnc(-c5ccccc5Cl)o4)nn3C)C2)cc1`, for which the RP-LC retention time was 1010 s.

The compound `COC(=O)c1c(C)[nH]c(C(=O)N2CCC(CC(=O)NCCN3CCOCC3)CC2)c1C` returned an RP-LC retention time of 584 s.

Take `O=C(Cc1c[nH]c2ccccc12)N1CCCN(C2CCN(CC3CC3)C2=O)CC1` (centres undefined): the RP-LC retention time stood at 610 s.

Compound `CCCCn1cc(S(=O)(=O)Nc2ccc(C)cc2F)c2cccnc21` showed an RP-LC retention time of 980 s.

Regarding `Cc1cc(C)n(C(=O)c2ccc(Cl)cc2[N+](=O)[O-])n1`, the RP-LC retention time was determined as 927 s.

Compound `Cc1ccccc1NC(=O)Cn1cnc2c(c1=O)CCCC2` had an RP-LC retention time of 662 s.

As to `Cc1nn(-c2ccc(C(=O)NCc3ccco3)cc2)cc1NC(=O)C(C)C`, the RP-LC retention time came to 722 s.

Compound `O=C(CN1C(=O)C(C(=O)N2CCCC2)Sc2ccccc21)N1CCN(c2ccccc2F)CC1` (centres undefined) returned an RP-LC retention time of 859 s.

For `COc1cccc(CNC(=O)C2(C)CCCN(C(=O)Nc3cc(Cl)ccc3C)C2)c1` (centres undefined), the RP-LC retention time stood at 982 s.

`Cc1cc(C)cc(NC(=O)N2CC(CN(C)C)C3(CCCCC3)C2)c1` (centres undefined) registered an RP-LC retention time of 695 s.

In the case of `COc1ccc(NC(=O)Cn2c(C)nc3c(sc4nc(-c5ccccc5)ccc43)c2=O)cc1OC`, the RP-LC retention time was found to be 938 s.

The compound `CCc1ccc(CNC(=O)c2c(C)oc3nc(C)nc(N4CCCC4)c23)cc1` displayed an RP-LC retention time of 795 s.

With `CC1(CNC(=O)c2ccc(Br)cc2)CCOCC1`, the RP-LC retention time was found to be 784 s.

Regarding `Cc1cc(C)n(CC(=O)N2CCCCCC2c2nnc(C)o2)n1` (centres undefined), the RP-LC retention time came to 631 s.

The compound `CCOc1ccccc1OCc1nn2c(CSc3ccccc3)nnc2s1` gave an RP-LC retention time of 1000 s.

Take `CCCNC(=O)C1CCCN(c2ccc(SCC(=O)Nc3ccc(Br)cc3)nn2)C1` (centres undefined): the RP-LC retention time is 710 s.

`Cc1cc2nc(NC3=NCN(CCO)CN3)nc(C)c2cc1C` returned an RP-LC retention time of 597 s.

With `Cc1sc(NC(=O)COc2ccc(Cl)cc2)nc1-c1ccc2c(c1)NC(=O)C(C)O2` (centres undefined), the RP-LC retention time came out at 1020 s.

Consider `Cc1cc(=O)n(CC(=O)Nc2ccc(F)c(Cl)c2)c(-c2ccccc2)n1`, for which the RP-LC retention time turned out to be 1090 s.

`O=C(Nc1cc(F)cc(F)c1)C1CCN(C(=O)c2ncn3c2COC(c2ccc(F)cc2)C3)CC1` (centres undefined) registered an RP-LC retention time of 858 s.

In turn, `COc1ccc(-c2cn3cccnc3n2)cc1NC(=O)c1cccc(Cl)c1` returned an RP-LC retention time of 740 s.

In turn, `CN1C(=O)c2cc(C(=O)NCc3ccccc3F)nn2CC1(C)C(=O)NC1CCCCCC1` (centres undefined) yielded an RP-LC retention time of 839 s.

Take `Cc1cc2[nH]c(C(=O)Nc3cccc(F)c3C)c(CN3CCOCC3)c2s1`: the RP-LC retention time came out at 731 s.

For `NS(=O)(=O)c1ccc(CCNC(=O)C2CCCN(c3nc4ccccc4[nH]3)C2)cc1` (centres undefined), the RP-LC retention time is 577 s.

In the case of `Cc1ccccc1C(=O)NCc1nn(C)c2ccccc12`, the RP-LC retention time was 857 s.

With `Cc1ccc(C(=O)NCc2nc(-c3ccc4c(c3)ncn4C)no2)cc1`, the RP-LC retention time amounted to 634 s.

`CCCCN(Cc1nc2nc(C)cc(C)n2n1)C(=O)c1ccco1` displayed an RP-LC retention time of 720 s.

The compound `Cc1ccc2c(c1)N(C(=O)Cn1c(=O)c(CCC(=O)NCC(C)C)nc3ccccc31)CCO2` came in with an RP-LC retention time of 884 s.

`CCN1C(=O)C2(c3ccccc31)c1[nH]c3ccccc3c1CCN2C(C)=O` (centres undefined) displayed an RP-LC retention time of 779 s.

Consider `O=C(c1csc(-c2cnccn2)n1)N1CCN(c2ccccc2Cl)CC1`, for which the RP-LC retention time turned out to be 866 s.

As to `Cc1noc(CN2CCN(C3CCN(Cc4cc(C(F)(F)F)ccc4Cl)C3)C2=O)n1` (centres undefined), the RP-LC retention time was 660 s.

The compound `CN(C1CCc2nn(CC3CC3)c(=O)n2CC1)S(=O)(=O)c1cccnc1` (centres undefined) had an RP-LC retention time of 659 s.

Compound `CCCS(=O)(=O)N1CCC(N2C(=O)[C@H](OC)[C@@H]2c2ccncc2)CC1` came in with an RP-LC retention time of 700 s.

Regarding `COc1cccc(CNC(=O)c2cn3ccc(C)cc3n2)c1OC`, the RP-LC retention time is 632 s.

Turning to `O=C(NC1CCCC1)c1c2c(nc3ccc(F)cc13)CCC2`, the RP-LC retention time turned out to be 750 s.

Take `CCOC(=O)c1c(C)oc2nc(C)nc(NCc3ccccn3)c12`: the RP-LC retention time turned out to be 683 s.

As for `FC(F)(F)c1cccc(-c2ccc(CNC3CC3)o2)c1`, the RP-LC retention time turned out to be 695 s.

Compound `CCOc1cc(C(=O)N2CCCC(C)(C(=O)NCc3ccc(F)cc3)C2)cc(OCC)c1OCC` (centres undefined) returned an RP-LC retention time of 978 s.

As to `O=C(Nc1ccc2c(c1)OCO2)C1CCCN(c2ncnc3c2nc2n3CCCCC2)C1` (centres undefined), the RP-LC retention time was 759 s.

`Cn1c(=O)c(SCC(=O)NCc2ccccc2Cl)nc2cccnc21`: the RP-LC retention time came to 786 s.

`O=S(=O)(NCc1cccnc1)c1cc(-c2nnc(-c3ccccc3)o2)ccc1F` yielded an RP-LC retention time of 673 s.

Turning to `OC(COc1ccc(Cl)cc1Cl)CN1CCCC1` (centres undefined), the RP-LC retention time came out at 570 s.

`O=C(Cn1ccc2c(SCc3ccc(F)cc3)nccc21)NCc1ccc(N2CCOCC2)cc1` showed an RP-LC retention time of 706 s.

`CC1CCN(C(=O)C2CCCN(c3ccnc(-c4ccc(F)cc4)n3)C2)CC1` (centres undefined) registered an RP-LC retention time of 706 s.

The compound `O=C(Nc1cccc(-c2nnc3n2CCCC3)c1)C1(c2ccccc2)CC1` showed an RP-LC retention time of 719 s.

With `Cc1sc(C)c(S(=O)(=O)Nc2ccc3c(c2)OCCO3)c1-c1cc(C(F)(F)F)on1`, the RP-LC retention time was 1070 s.

On to `CCc1ccccc1N1C(=O)CN(S(=O)(=O)c2ccccc2)CC1(C)C(=O)NC1CCCC1` (centres undefined), for which the RP-LC retention time was found to be 960 s.

`CC(C)c1ccc(CNC(=O)C2CCCN(c3cc(=O)n(C)c(=O)n3C)C2)cc1` (centres undefined) registered an RP-LC retention time of 781 s.

Consider `CCOC(=O)c1noc2nc(C)nc(NCc3ccc(F)cc3)c12`, for which the RP-LC retention time amounted to 1030 s.
